# Results taken from patent US20090018194A1, “Use of antimicrobial agents derived from alliaceous plants for the prevention and control of crop diseases, post-harvest rot and as environmental disinifectant products” (DMC Research Center, S.L., priority 2007, published 2009).
# Key:
# [1] = tested on: Pseudomonas aeruginosa ATCC 9027; test: agar diffusion test with impregnated cellulose discs; format: cell-based; conditions: incl. 6 mm disc
# [2] = tested on: plants inoculated with mycorrhizal fungi; conditions: in vivo
# [3] = tested on: Fusarium spp.; test: field tests on affected asparagus, Fusarium spp. in roots; format: in vivo; conditions: 60 days after application, compared to untreated control
# Method: The treatment doses used were 250, 500 and 1000 ppm of both active principles (PT and PTSO), and the initial incidence of the pathogen was compared with its presence 60 days after its application.
# To analyze the growth of the crops infected by Fusarium spp. after the treatments, root and soil samples were taken and tests were performed in the laboratory to investigate the incidence of the pathogen in the roots and soil. The cultivation media used were potato dextrose agar and rose bengal agar (to prevent the invasive character of the Mucoralean fungi).
# The soil analysis was conducted by sequential dilutions of the soils in physiological serum with a subsequent sowing in the above mentioned media. The analysis of the roots was performed after dissection of the infected tissues, which were deposited in triplicate on filter paper located above both media, and their evolution over time was studied.
# The data are expressed as a percentage of elimination and reduction as a function of the treatment dose compared to the untreated control samples.
# [4] = tested on: Ralstonia solanacearum Strain GM1000; format: cell-based; conditions: in vitro tests
# [5] = tested on: Escherichia coli ATCC 25922; test: agar diffusion test with impregnated cellulose discs; format: cell-based; conditions: incl. 6 mm disc
# [6] = tested on: Penicillium solitum Wild strain; test: as above; format: cell-based; conditions: incl. 6 mm disc
# [7] = tested on: Leveillula taurica; test: control of powdery mildew in peppers grown in greenhouses; format: in vivo; conditions: doses of 1000 and 2000 ppm; peppers in greenhouse; reference Ciproconazol/Triadimenol
# From the text: Some of these tests were especially significant, such as the result against powdery mildew in peppers grown in greenhouses in Almeria. The relevance of the data obtained is based on the scarcity of effective and non-synthetic systems that control this disease (caused by Leveillula taurica).
# In the case of this test, spray guns were used, via the greenhouse irrigation system, to apply solutions of 1000 ppm and 2000 ppm of PTS and PTSO, with a nutrient broth volume of 20, 30, 40 l/parcel, depending on the application. These solutions were distributed in parcels of 4 rows, located in the zone of the greenhouse with a greater incidence of powdery mildew, while a reference product was applied in the rest of the warehouse: Ciproconazol (Caddy 10 WG at 10 gr/100 l) for the first and second application, Triadimenol (Bayfidan 25 EC at 25 ml/100 l) for the third application and Ciproconazol/Triadimenol for the final application.
# [8] = tested on: Rhizopus stolonifer; test: disinfection of containers stored inside the rooms by fogging
# [9] = tested on: Bacillus cereus ATCC 10876; test: agar diffusion test with impregnated cellulose discs; format: cell-based; conditions: incl. 6 mm disc
# [10] = tested on: Fungi mixture (P. expansum, P. italicum, P. digitatum and A. Alternata); test: disinfection of artificially contaminated containers by drencher; conditions: drencher 30 seconds
# Method: (§1) A test of the disinfection of containers (fruit boxes and crates) was conducted in which a level of artificial contamination was created by means of controlled inoculation, with the objective of determining optimum doses of application to achieve a satisfactory disinfection. First the containers (made of wood and plastic) were disinfected with sodium hypochlorite, and they were then artificially contaminated via controlled inoculations with different fungi characteristic of the fruit and vegetable processing sector. For this purpose, isolated wild strains were used which, after sporulation, were collected to create a suspension of mixed spores of various fungi (Penicillium expansum, Penicillium italicum, Penicillium digitarum and Alternario alternata) and, separately in simultaneous tests (as a result of its higher rate of growth and its invasive character), a suspension of Rhizopus stolonifer. […] After this fogging, the containers were allowed to dry. The containers were then sampled to determine the level of initial contamination achieved (by means of contact plates containing Rose Bengal agar). The containers were then treated in a pilot line […]. The hold time of the containers under the showers was 30 seconds, and the test doses were 750 ppm and 1050 ppm for PTS and 2000 ppm and 5000 ppm in the case of PTSO. After exiting the showers, the treated containers were allowed to dry, and were again sampled using contact plates with Rose Bengal agar to determine the final level of contamination. The sampling unit was 3 containers and 3 plates per repetition.
# [11] = tested on: R. stolonifer; test: as above; parameters: species or system Rhizopus stolonifer; conditions: drencher 30 seconds
# Method: as §1
# [12] = tested on: fungal population; test: disinfection by drencher of naturally contaminated containers of a citrus fruit processing plant
# [13] = tested on: Fungi mixture (P. expansum, P. italicum, P. digitatum and A. Alternata); test: disinfection of containers stored inside the rooms by fogging
smiles,measurement,setting,value
"CCCS[S+]([O-])CCC (stereo not shown) [PTS, Propyl Propyl Thiosulfinate]",diameter of the microbial inhibition halo,[1]; 60 ppm,8 mm
same,diameter of the microbial inhibition halo,[1]; 125 ppm,9 mm
same,diameter of the microbial inhibition halo,[1]; 250 ppm,10 mm
same,diameter of the microbial inhibition halo,[1]; 500 ppm,12 mm
same,diameter of the microbial inhibition halo,[1]; 1000 ppm,14 mm
same,phytotoxicity to the plant,[2],did not suffer phytotoxicity
same,% Reduction,[3]; 250 ppm,60%
same,% elimination,[3]; 250 ppm,0%
same,% Reduction,[3]; 500 ppm,14%
same,% elimination,[3]; 500 ppm,57%
same,% Reduction,[3]; 1000 ppm,13%
same,% elimination,[3]; 1000 ppm,58%
same,effectiveness of the application (in words),[4],highly effective
same,diameter of the microbial inhibition halo,[5]; 60 ppm,12 mm
same,diameter of the microbial inhibition halo,[5]; 125 ppm,17 mm
same,diameter of the microbial inhibition halo,[5]; 250 ppm,24 mm
same,diameter of the microbial inhibition halo,[5]; 500 ppm,25 mm
same,diameter of the microbial inhibition halo,[5]; 1000 ppm,27 mm
same,diameter of the microbial inhibition halo,[6]; 60 ppm,0 mm
same,diameter of the microbial inhibition halo,[6]; 125 ppm,11 mm
same,diameter of the microbial inhibition halo,[6]; 250 ppm,16 mm
same,diameter of the microbial inhibition halo,[6]; 500 ppm,28 mm
same,diameter of the microbial inhibition halo,[6]; 1000 ppm,35 mm
same,"control of powdery mildew, as % of the effectiveness of the reference product",[7],92%
same,Reduction of the population (%),"[8]; 750 ppm, Plastic container",36%
same,Reduction of the population (%),"[8]; 1050 ppm, Plastic container",27%
same,Reduction of the population (%),"[8]; 1050 ppm, Wood container",26%
same,diameter of the microbial inhibition halo,[9]; 60 ppm,15 mm
same,diameter of the microbial inhibition halo,[9]; 125 ppm,20 mm
same,diameter of the microbial inhibition halo,[9]; 250 ppm,25 mm
same,diameter of the microbial inhibition halo,[9]; 500 ppm,27 mm
same,diameter of the microbial inhibition halo,[9]; 1000 ppm,35 mm
same,Reduction of the population (%),"[10]; 750 ppm, Plastic container",81%
same,Reduction of the population (%),"[10]; 750 ppm, Wood container",85%
same,Reduction of the population (%),"[10]; 1050 ppm, Plastic container",87%
same,Reduction of the population (%),"[10]; 1050 ppm, Wood container",85%
same,Reduction of the population (%),"[11]; 750 ppm, Plastic container",100%
same,Reduction of the population (%),"[11]; 750 ppm, Wood container",94%
same,Reduction of the population (%),"[11]; 1050 ppm, Plastic container",99%
same,Reduction of the population (%),"[11]; 1050 ppm, Wood container",100%
same,Reduction of the fungal population (%),"[12]; PTS 750 mm, Bottom of the pallet, Beginning of bath",87%
same,Reduction of the fungal population (%),"[12]; PTS 750 mm, Bottom of the pallet, End of bath",79%
same,Reduction of the fungal population (%),"[12]; PTS 750 mm, Side of the pallet, Beginning of bath",97%
same,Reduction of the fungal population (%),"[12]; PTS 750 mm, Side of the pallet, End of bath",100%
same,Reduction of the population (%),"[13]; 750 ppm, Plastic container",97%
same,Reduction of the population (%),"[13]; 750 ppm, Wood container",97%
same,Reduction of the population (%),"[13]; 1050 ppm, Plastic container",98%
same,Reduction of the population (%),"[13]; 1050 ppm, Wood container",97%
"CCCSS(=O)(=O)CCC [PTSO, Propyl Propyl Thiosulfonate]",diameter of the microbial inhibition halo,[1]; 60 ppm,6.5 mm
same,diameter of the microbial inhibition halo,[1]; 125 ppm,8 mm
same,diameter of the microbial inhibition halo,[1]; 250 ppm,9 mm
same,diameter of the microbial inhibition halo,[1]; 500 ppm,10 mm
same,diameter of the microbial inhibition halo,[1]; 1000 ppm,12 mm
same,phytotoxicity to the plant,[2],did not suffer phytotoxicity
same,% Reduction,[3]; 250 ppm,25%
same,% elimination,[3]; 250 ppm,33%
same,% Reduction,[3]; 500 ppm,14%
same,% elimination,[3]; 500 ppm,86%
same,% Reduction,[3]; 1000 ppm,43%
same,% elimination,[3]; 1000 ppm,57%
same,effectiveness of the application (in words),[4],highly effective
same,diameter of the microbial inhibition halo,[5]; 60 ppm,18 mm
same,diameter of the microbial inhibition halo,[5]; 125 ppm,19 mm
same,diameter of the microbial inhibition halo,[5]; 250 ppm,26 mm
same,diameter of the microbial inhibition halo,[5]; 500 ppm,27 mm
same,diameter of the microbial inhibition halo,[5]; 1000 ppm,29 mm
same,diameter of the microbial inhibition halo,[6]; 60 ppm,0 mm
same,diameter of the microbial inhibition halo,[6]; 125 ppm,12 mm
same,diameter of the microbial inhibition halo,[6]; 250 ppm,20 mm
same,diameter of the microbial inhibition halo,[6]; 500 ppm,30 mm
same,diameter of the microbial inhibition halo,[6]; 1000 ppm,40 mm
same,"control of powdery mildew, as % of the effectiveness of the reference product",[7],slightly lower
same,Reduction of the population (%),"[8]; 2000 ppm, Plastic container",77%
same,Reduction of the population (%),"[8]; 2000 ppm, Wood container",78%
same,Reduction of the population (%),"[8]; 5000 ppm, Plastic container",71%
same,Reduction of the population (%),"[8]; 5000 ppm, Wood container",56%
same,diameter of the microbial inhibition halo,[9]; 60 ppm,25 mm
same,diameter of the microbial inhibition halo,[9]; 125 ppm,35 mm
same,diameter of the microbial inhibition halo,[9]; 250 ppm,45 mm
same,diameter of the microbial inhibition halo,[9]; 500 ppm,47 mm
same,diameter of the microbial inhibition halo,[9]; 1000 ppm,49 mm
same,Reduction of the population (%),"[10]; 2000 ppm, Plastic container",93%
same,Reduction of the population (%),"[10]; 2000 ppm, Wood container",98%
same,Reduction of the population (%),"[10]; 5000 ppm, Plastic container",93%
same,Reduction of the population (%),"[10]; 5000 ppm, Wood container",99%
same,Reduction of the population (%),"[11]; 2000 ppm, Plastic container",100%
same,Reduction of the population (%),"[11]; 2000 ppm, Wood container",96%
same,Reduction of the population (%),"[11]; 5000 ppm, Plastic container",100%
same,Reduction of the population (%),"[11]; 5000 ppm, Wood container",98%
same,Reduction of the fungal population (%),"[12]; PTSO 2000 ppm, Bottom of the pallet, Beginning of bath",93%
same,Reduction of the fungal population (%),"[12]; PTSO 2000 ppm, Bottom of the pallet, End of bath",96%
same,Reduction of the fungal population (%),"[12]; PTSO 2000 ppm, Side of the pallet, Beginning of bath",100%
same,Reduction of the fungal population (%),"[12]; PTSO 2000 ppm, Side of the pallet, End of bath",87%
same,Reduction of the population (%),"[13]; 2000 ppm, Plastic container",94%
same,Reduction of the population (%),"[13]; 2000 ppm, Wood container",67%
same,Reduction of the population (%),"[13]; 5000 ppm, Plastic container",92%
same,Reduction of the population (%),"[13]; 5000 ppm, Wood container",70%
